Target: T1, PolyNic (polygenomic nicotinamidase)
T1 construct: 588 bp PCR product in pET-46 Ek/LIC, expressed in E. coli Rosetta 2 (DE3); dimer
Test: HPLC nicotinamidase assay, Morrison fit, NAM as substrate (Ki […] with PZA as substrate)
Format: biochemical

O=Cc1cccnc1 [nicotinaldehyde]
Ki: 180 nM

Reference: PMC5147024, “Combined Whole-Cell High-Throughput Functional Screening for Identification of New Nicotinamidases/Pyrazinamidases in Metagenomic/Polygenomic Libraries” (Frontiers in Microbiology, 2016)
